# Where a SMILES comes first, the peptide text is derived from it.
# Legend:
# [1] = tested on: MRSA 3126; type: cell-based, Staphylococcus aureus; conditions: 3126
# Outline: (§1)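 Broth microdilution in MH medium: bacterial strains diluted to 2×10^6 CFU were mixed with equal volumes of peptide serially diluted twofold in MH medium.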
# [2] = tested on: MRSA 3114; type: cell-based, Staphylococcus aureus; conditions: 3114
# Outline: as §1
# [3] = tested on: MDREC 1238; type: cell-based, Escherichia coli
# Outline: as §1
# [4] = tested on: A. baumannii; test: MIC of antibiotic during combined treatment with antimicrobial peptide; type: cell-based, Acinetobacter baumannii; conditions: for Antibiotic MIC, Erythromycin / Antibiotic MIC, Linezolid / Antibiotic MIC, Vancomycin: A. baumannii
# Outline: (§2)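 Read-out is the MIC of each combined solution, obtained from MH-medium dilutions of antibiotic added well by well, with a reversed-condition run as well.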
# [5] = tested on: E. coli; test: as above; type: cell-based, Escherichia coli; conditions: for Antibiotic MIC, Erythromycin / Antibiotic MIC, Linezolid / Antibiotic MIC, Vancomycin: E. coli
# Outline: as §2
# [6] = tested on: MDRAB 12035; test: as above; type: cell-based, Acinetobacter baumannii
# Outline: (§3)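 Strains in MH medium at 2×10^6 CFU/ml were mixed with peptide diluted stepwise (2:1) from its MIC, then antibiotic dilutions in MH medium were added to give the antibiotic MIC. The reversed set-up, peptide titrated against fixed antibiotic, gave the peptide MIC.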
# [7] = tested on: MDRST 8007; test: Minimal inhibitory concentration (MIC), single agent; type: cell-based, Salmonella typhimurium; conditions: agent alone
# Outline: as §1
# [8] = tested on: MDRPA 2003; type: cell-based, Pseudomonas aeruginosa
# Outline: as §1
# [9] = tested on: MDRPA 2002; type: cell-based, Pseudomonas aeruginosa
# Outline: as §1
# [10] = tested on: P. aeruginosa; test: microbe, parasite or virus in culture; type: cell-based, Pseudomonas aeruginosa
# Outline: as §1
# [11] = tested on: MDREC 1229; test: MIC of antibiotic during combined treatment with antimicrobial peptide; type: cell-based, Escherichia coli
# Outline: as §3
# [12] = tested on: MDREC 1229; test: microbe, parasite or virus in culture; type: cell-based, Escherichia coli
# Outline: as §1
# [13] = tested on: E. coli; test: microbe, parasite or virus in culture; type: cell-based, Escherichia coli; conditions: 16 h
# Outline: as §1
# [14] = tested on: S. epidermidis; test: microbe, parasite or virus in culture; type: cell-based, Staphylococcus epidermidis
# Outline: as §1
# [15] = tested on: B. subtilis; test: microbe, parasite or virus in culture; type: cell-based, Bacillus subtilis
# Outline: as §1
# [16] = tested on: S. aureus; test: microbe, parasite or virus in culture; type: cell-based, Staphylococcus aureus
# Outline: as §1
# [17] = combined with peptide at 1 μg/ml
# [18] = combined with peptide at 2 μg/ml
# [19] = combined with peptide at 4 μg/ml
# [20] = combined with peptide at 6 μg/ml
# [21] = combined with peptide at 8 μg/ml
# [22] = combined with peptide at 16 μg/ml
# [23] = combined with peptide at 32 μg/ml
# [24] = combined with peptide at 64 μg/ml
# [25] = peptide treatment concentration 1 μg/ml
# [26] = peptide treatment concentration 2 μg/ml
# [27] = peptide treatment concentration 4 μg/ml
# [28] = peptide treatment concentration 6 μg/ml
# [29] = peptide treatment concentration 8 μg/ml
# [30] = peptide treatment concentration 16 μg/ml
# [31] = peptide treatment concentration 32 μg/ml
# [32] = peptide treatment concentration 64 μg/ml
structure (smiles),measurement,setting,value
"CC[C@H](C)[C@H](NC(=O)[C@H](CCCCN)NC(=O)[C@H](Cc1c[nH]c2ccccc12)NC(=O)[C@@H](N)CCCNC(=N)N)C(=O)N[C@@H](Cc1ccccc1)C(=O)N[C@@H](CCCCN)C(=O)N[C@@H](CCCCN)C(=O)N[C@H](C(=O)N1CCC[C@H]1C(=O)N[C@@H](CCCCN)C(=O)N[C@@H](CC(C)C)C(=O)N[C@@H](CC(C)C)C(=O)N[C@@H](Cc1c[nH]cn1)C(=O)N[C@@H](CCC(=O)O)C(=O)N[C@@H](C)C(=O)N[C@@H](CCCCN)C(=O)N[C@@H](CCCCN)C(=O)N[C@@H](Cc1c[nH]c2ccccc12)C(N)=O)[C@@H](C)CC [PapMA-13, RWK IFK KIP KLL HEA KKW-NH2] (H-RWKIFKKIPKLLHEAKKW-NH2; N-terminus assumed)",Minimal inhibitory concentration MIC,[1],>128 µg/mL
same,Minimal inhibitory concentration MIC,[2],>128 µg/mL
same,Minimal inhibitory concentration MIC,[3],16 µg/mL
same,Synergistic effect of antibacterial activity with existing antibiotics compared with PapMA-1,[4]; A. baumannii and MDRAB 12035,higher level than the PapMA-1 peptide
same,"Antibiotic MIC, Erythromycin",[4]; [17],16 µg/mL
same,"Antibiotic MIC, Linezolid",[4]; [17],64 µg/mL
same,"Antibiotic MIC, Vancomycin",[4]; [17],128 µg/mL
same,"Antibiotic MIC, Erythromycin",[4]; [18],8 µg/mL
same,"Antibiotic MIC, Linezolid",[4]; [18],32 µg/mL
same,"Antibiotic MIC, Vancomycin",[4]; [18],64 µg/mL
same,"Antibiotic MIC, Erythromycin",[4]; [19],1 µg/mL
same,"Antibiotic MIC, Linezolid",[4]; [19],4 µg/mL
same,"Antibiotic MIC, Vancomycin",[4]; [19],4 µg/mL
same,"Antibiotic MIC, Erythromycin",[4]; [20],0.5 µg/mL
same,"Antibiotic MIC, Linezolid",[4]; [20],2 µg/mL
same,"Antibiotic MIC, Vancomycin",[4]; [20],1 µg/mL
same,"Antibiotic MIC, Erythromycin",[4]; [21],0.125 µg/mL
same,"Antibiotic MIC, Linezolid",[4]; [21],1 µg/mL
same,"Antibiotic MIC, Vancomycin",[4]; [21],0.5 µg/mL
same,"Antibiotic MIC, Erythromycin",[4]; [22],0 µg/mL
same,"Antibiotic MIC, Linezolid",[4]; [22],0 µg/mL
same,"Antibiotic MIC, Vancomycin",[4]; [22],0 µg/mL
same,"Antibiotic MIC, Erythromycin",[4]; [23],0 µg/mL
same,"Antibiotic MIC, Linezolid",[4]; [23],0 µg/mL
same,"Antibiotic MIC, Vancomycin",[4]; [23],0 µg/mL
same,"Antibiotic MIC, Erythromycin",[4]; [24],0 µg/mL
same,"Antibiotic MIC, Linezolid",[4]; [24],0 µg/mL
same,"Antibiotic MIC, Vancomycin",[4]; [24],0 µg/mL
same,Synergistic effect of antibacterial activity with existing antibiotics compared with PapMA-1,[5]; E. coli and MDREC1229,higher level than the PapMA-1 peptide
same,"Antibiotic MIC, Erythromycin",[5]; erythromycin combined with peptide at 1 μg/ml,64 µg/mL
same,"Antibiotic MIC, Erythromycin",[5]; erythromycin combined with peptide at 2 μg/ml,16 µg/mL
same,"Antibiotic MIC, Erythromycin",[5]; erythromycin combined with peptide at 4 μg/ml,2 µg/mL
same,"Antibiotic MIC, Erythromycin",[5]; erythromycin combined with peptide at 6 μg/ml,1 µg/mL
same,"Antibiotic MIC, Erythromycin",[5]; erythromycin combined with peptide at 8 μg/ml,0.25 µg/mL
same,"Antibiotic MIC, Erythromycin",[5]; erythromycin combined with peptide at 16 μg/ml,0 µg/mL
same,"Antibiotic MIC, Erythromycin",[5]; erythromycin combined with peptide at 32 μg/ml,0 µg/mL
same,"Antibiotic MIC, Erythromycin",[5]; erythromycin combined with peptide at 64 μg/ml,0 µg/mL
same,"Antibiotic MIC, Linezolid",[5]; linezolid combined with peptide at 1 μg/ml,>128 µg/mL
same,"Antibiotic MIC, Linezolid",[5]; linezolid combined with peptide at 2 μg/ml,64 µg/mL
same,"Antibiotic MIC, Linezolid",[5]; linezolid combined with peptide at 4 μg/ml,8 µg/mL
same,"Antibiotic MIC, Linezolid",[5]; linezolid combined with peptide at 6 μg/ml,4 µg/mL
same,"Antibiotic MIC, Linezolid",[5]; linezolid combined with peptide at 8 μg/ml,1 µg/mL
same,"Antibiotic MIC, Linezolid",[5]; linezolid combined with peptide at 16 μg/ml,0 µg/mL
same,"Antibiotic MIC, Linezolid",[5]; linezolid combined with peptide at 32 μg/ml,0 µg/mL
same,"Antibiotic MIC, Linezolid",[5]; linezolid combined with peptide at 64 μg/ml,0 µg/mL
same,"Antibiotic MIC, Vancomycin",[5]; vancomycin combined with peptide at 1 μg/ml,>128 µg/mL
same,"Antibiotic MIC, Vancomycin",[5]; vancomycin combined with peptide at 2 μg/ml,64 µg/mL
same,"Antibiotic MIC, Vancomycin",[5]; vancomycin combined with peptide at 4 μg/ml,16 µg/mL
same,"Antibiotic MIC, Vancomycin",[5]; vancomycin combined with peptide at 6 μg/ml,8 µg/mL
same,"Antibiotic MIC, Vancomycin",[5]; vancomycin combined with peptide at 8 μg/ml,2 µg/mL
same,"Antibiotic MIC, Vancomycin",[5]; vancomycin combined with peptide at 16 μg/ml,0 µg/mL
same,"Antibiotic MIC, Vancomycin",[5]; vancomycin combined with peptide at 32 μg/ml,0 µg/mL
same,"Antibiotic MIC, Vancomycin",[5]; vancomycin combined with peptide at 64 μg/ml,0 µg/mL
same,Erythromycin MIC during combined treatment with peptide,[6]; [25],16 µg/mL
same,Linezolid MIC during combined treatment with peptide,[6]; [25],128 µg/mL
same,Vancomycin MIC during combined treatment with peptide,[6]; [25],128 µg/mL
same,Erythromycin MIC during combined treatment with peptide,[6]; [26],8 µg/mL
same,Linezolid MIC during combined treatment with peptide,[6]; [26],32 µg/mL
same,Vancomycin MIC during combined treatment with peptide,[6]; [26],64 µg/mL
same,Erythromycin MIC during combined treatment with peptide,[6]; [27],4 µg/mL
same,Linezolid MIC during combined treatment with peptide,[6]; [27],16 µg/mL
same,Vancomycin MIC during combined treatment with peptide,[6]; [27],16 µg/mL
same,Erythromycin MIC during combined treatment with peptide,[6]; [28],1 µg/mL
same,Linezolid MIC during combined treatment with peptide,[6]; [28],8 µg/mL
same,Vancomycin MIC during combined treatment with peptide,[6]; [28],2 µg/mL
same,Erythromycin MIC during combined treatment with peptide,[6]; [29],0.5 µg/mL
same,Linezolid MIC during combined treatment with peptide,[6]; [29],2 µg/mL
same,Vancomycin MIC during combined treatment with peptide,[6]; [29],1 µg/mL
same,Erythromycin MIC during combined treatment with peptide,[6]; [30],0 µg/mL
same,Linezolid MIC during combined treatment with peptide,[6]; [30],0 µg/mL
same,Vancomycin MIC during combined treatment with peptide,[6]; [30],0 µg/mL
same,Erythromycin MIC during combined treatment with peptide,[6]; [31],0 µg/mL
same,Linezolid MIC during combined treatment with peptide,[6]; [31],0 µg/mL
same,Vancomycin MIC during combined treatment with peptide,[6]; [31],0 µg/mL
same,Erythromycin MIC during combined treatment with peptide,[6]; [32],0 µg/mL
same,Linezolid MIC during combined treatment with peptide,[6]; [32],0 µg/mL
same,Vancomycin MIC during combined treatment with peptide,[6]; [32],0 µg/mL
same,Minimal inhibitory concentration MIC,[7],16 µg/mL
same,Minimal inhibitory concentration MIC,[8],128 µg/mL
same,Minimal inhibitory concentration MIC,[9],128 µg/mL
same,Minimal inhibitory concentration MIC,[10],128 µg/mL
same,"Antibiotic MIC, Erythromycin",[11]; [25],>128 µg/mL
same,"Antibiotic MIC, Linezolid",[11]; [25],>128 µg/mL
same,"Antibiotic MIC, Vancomycin",[11]; [25],>128 µg/mL
same,"Antibiotic MIC, Erythromycin",[11]; [26],32 µg/mL
same,"Antibiotic MIC, Linezolid",[11]; [26],128 µg/mL
same,"Antibiotic MIC, Vancomycin",[11]; [26],>128 µg/mL
same,"Antibiotic MIC, Erythromycin",[11]; [27],8 µg/mL
same,"Antibiotic MIC, Linezolid",[11]; [27],64 µg/mL
same,"Antibiotic MIC, Vancomycin",[11]; [27],64 µg/mL
same,"Antibiotic MIC, Erythromycin",[11]; [28],4 µg/mL
same,"Antibiotic MIC, Linezolid",[11]; [28],8 µg/mL
same,"Antibiotic MIC, Vancomycin",[11]; [28],16 µg/mL
same,"Antibiotic MIC, Erythromycin",[11]; [29],0.5 µg/mL
same,"Antibiotic MIC, Linezolid",[11]; [29],4 µg/mL
same,"Antibiotic MIC, Vancomycin",[11]; [29],4 µg/mL
same,"Antibiotic MIC, Erythromycin",[11]; [30],0 µg/mL
same,"Antibiotic MIC, Linezolid",[11]; [30],0 µg/mL
same,"Antibiotic MIC, Vancomycin",[11]; [30],0 µg/mL
same,"Antibiotic MIC, Erythromycin",[11]; [31],0 µg/mL
same,"Antibiotic MIC, Linezolid",[11]; [31],0 µg/mL
same,"Antibiotic MIC, Vancomycin",[11]; [31],0 µg/mL
same,"Antibiotic MIC, Erythromycin",[11]; [32],0 µg/mL
same,"Antibiotic MIC, Linezolid",[11]; [32],0 µg/mL
same,"Antibiotic MIC, Vancomycin",[11]; [32],0 µg/mL
same,Minimal inhibitory concentration MIC,[12],16 µg/mL
same,"Peptide MIC, peptide alone",[12],16 µg/mL
same,Minimal inhibitory concentration MIC,[13],16 µg/mL
same,Minimal inhibitory concentration MIC,[14],>128 µg/mL
same,Minimal inhibitory concentration MIC,[15],>128 µg/mL
same,Minimal inhibitory concentration MIC,[16],>128 µg/mL
